Test results published in EPA's ToxValDB 9.5 (doi:10.2903/j.efsa.2006.57r).
Converted amounts (≈) assume the structure as drawn.

What was measured:
[1] = test system: Anas platyrhynchos; settings: acute; oral; unspecified; mortality
[2] = test system: Apis mellifera; settings: acute, mortality
[3] = test system: Canidae; settings: chronic; duration: 1 years; oral; Dog Other; body weight
[4] = test system: Colinus virginianus; settings: reproduction developmental; F
[5] = test system: Cucumis sativus; settings: not reported; other
[6] = test system: Daphnia magna; settings: chronic/long-term; duration: 21 days; mortality
[7] = test system: Ictalurus punctatus; settings: acute; duration: 96 hours; mortality
[8] = test system: Oryctolagus sp.; settings: reproduction developmental
[9] = test system: Pimephales promelas; settings: chronic/long-term; duration: 35 days; other
[10] = test system: Rattus norvegicus; settings: oral
[11] = test system: Tagia sp.; settings: acute; mortality
[12] = test system: Aphidius rhopalosiphi; test: LR50; higher = less toxic; settings: not reported; mortality
[13] = test system: Typhlodromus pyri; test: LR50; higher = less toxic; settings: not reported; mortality

## CCOC(=O)C1CC(=O)C(=C(O)C2CC2)C(=O)C1 (stereo not given) [Trinexapac-ethyl]
[1]
  LD50: > 2000 mg/kg
[2]; dermal
  LD50: 69.6 µg/piece
[2]; oral, unspecified
  LD50: > 108 µg/piece
[3]
  NOAEL: 32 mg/kg-day
[4]
  NOEC: ≥ 53.3 mg/kg-day
[5]
  NOEC: > 24 g/ha
[6]
  NOEC: 2.4 mg/L
[7]
  LC50: 35 µg/mL (≈ 139 µM)
[8]
  NOAEL: 60 mg/kg-day
[9]
  NOEC: 0.41 mg/L
[10]; acute, mortality
  LD50: 4210 mg/kg
[10]; subchronic, duration: 90 days, body weight
  NOAEL: ≤ 34 mg/kg-day
[11]
  LC50: > 250 mg/kg
[12]
  LR50: 114 g/ha
[13]
  LR50: 197 g/ha
